Experimental data taken from patent US9815851B2, “Pyrrolo carboxamides as modulators of orphan nuclear receptor RAR-related orphan receptor-gamma (RORγ, NR1F3) activity and for the treatment of chronic inflammatory and autoimmune diseases” (PHENEX PHARMACEUTICALS AG, priority 2011, dated 2017).
Where two headings read alike, the source gives them in different places.

What was measured:
[1] = target: T1, RORγ (UniProt P51449); test: RORγ Gal4 Reporter Gene Assay in 293T cells (firefly and renilla luciferase); assay type: cell-based, human
T1 sequence (P51449 1-518): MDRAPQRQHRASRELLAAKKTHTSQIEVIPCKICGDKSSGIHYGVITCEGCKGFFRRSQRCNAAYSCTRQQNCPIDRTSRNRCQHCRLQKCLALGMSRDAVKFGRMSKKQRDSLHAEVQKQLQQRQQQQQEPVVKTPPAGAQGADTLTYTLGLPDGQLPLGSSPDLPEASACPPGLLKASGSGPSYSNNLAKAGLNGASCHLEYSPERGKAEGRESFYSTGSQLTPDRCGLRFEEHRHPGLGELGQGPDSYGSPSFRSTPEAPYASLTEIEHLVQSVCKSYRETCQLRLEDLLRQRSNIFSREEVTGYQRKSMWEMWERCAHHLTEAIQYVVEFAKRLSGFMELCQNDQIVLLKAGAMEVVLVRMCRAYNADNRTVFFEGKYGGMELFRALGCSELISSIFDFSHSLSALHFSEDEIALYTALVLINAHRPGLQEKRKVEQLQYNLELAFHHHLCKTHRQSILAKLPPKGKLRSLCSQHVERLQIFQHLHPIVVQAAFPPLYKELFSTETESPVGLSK

[2] = target: T2, RORγ ligand binding domain (LBD) (Homo sapiens, UniProt P51449); test: TR-FRET Activity Assay (ligand sensing, RORγ-LBD / coactivator peptide interaction, LANCE); assay type: biochemical
T2 construct: made in house; host or cells: E. coli BL-21 (BL3), vector pDEST15
T2 sequence (P51449 269-508 limits assumed): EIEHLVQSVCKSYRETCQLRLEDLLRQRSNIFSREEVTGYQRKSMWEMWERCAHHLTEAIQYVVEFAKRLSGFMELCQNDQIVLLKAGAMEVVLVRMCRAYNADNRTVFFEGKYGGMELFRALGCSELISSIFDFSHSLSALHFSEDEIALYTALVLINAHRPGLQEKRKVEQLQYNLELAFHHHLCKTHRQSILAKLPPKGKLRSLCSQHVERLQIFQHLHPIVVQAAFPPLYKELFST

[3] = second value of the cell, Gal4 reporter gene assay in 293T cells, firefly luciferase
[4] = third value of the cell, Gal4 reporter gene assay in 293T cells, renilla normalised luciferase
[5] = first value of the cell FRET/FF/REN, TR-FRET activity assay, read-out: pIC50 (FRET) (converted)

pIC50 (FF) [1, 3]	pIC50 (REN) [1, 4]	IC50 [2, 5]	Compound	pIC50 (FF) [1]	pIC50 (REN) [1]	IC50 [2]
7.0	7.1	251 nM	Cc1c(C(=O)NC2CCOCC2)cc(-c2cc(Cl)cc(C3(C)CC3)c2)n1CC1CCCCC1 [17/296]	–	–	–
7.1	7.5	5010 nM	Cc1c(C(=O)N[C@H]2C[C@H](C(=O)O)C2)cc(-c2cc(Cl)cc(C3(C)CC3)c2)n1CC1CCCCC1 [17/299]	–	–	–
7.3	7.6	794 nM	Cc1c(C(=O)N[C@H]2C[C@H](C(=O)O)C2)cc(-c2cc(C(F)(F)F)cc(C3(C)CC3)c2)n1CC1CCCCC1 [17/300]	–	–	–
7.6	7.6	2000 nM	Cc1c(C(=O)NC23CCC(C(=O)O)(CC2)C3)cc(-c2cc(C(C)(C)O)cc(C3(C)CC3)c2)n1CC1CCCCC1 [17/301]	–	–	–
6.3	6.4	3980 nM	COC(C)(C)c1cc(-c2cc(C(=O)NC3CCOCC3)c(C)n2CC2CCCCC2)cc(C(C)NC(C)C)c1 (stereo not drawn) [17/303]	–	–	–
7.2	7.3	1580 nM	Cc1c(C(=O)N[C@H]2C[C@H](C(=O)O)C2)cc(-c2cc(C(C)(C)C)cc(C(F)(F)F)c2)n1CC1CCCCC1 [17/304]	–	–	–
–	–	–	Cc1c(C(=O)NCCC(C)(C)C(=O)O)cc(-c2cc(C(C)(C)C)cc(C(F)(F)F)c2)n1CC1CCCCC1 [17/305]	5.7/6.8/6.7	5.7/6.8/6.7	2000 nM
6.2	6.0	3160 nM	Cc1c(C(=O)N[C@H]2C[C@H](C(=O)O)C2)cc(-c2cc(C(C)(C)O)cc(C(F)(F)F)c2)n1CC1CCCCC1 [17/307]	–	–	–
6.5	6.4	6310 nM	Cc1c(C(=O)NCCC(C)(C)C(=O)O)cc(-c2cc(C(C)(C)O)cc(C(F)(F)F)c2)n1CC1CCCCC1 [17/308]	–	–	–
–	–	–	Cc1c(C(=O)NCC(C)(C)c2nnn[nH]2)cc(-c2cc(C(C)(C)O)cc(C3(C)CC3)c2)n1CC1CCCCC1 [17/309]	6.1/6.7/6.8	6.1/6.7/6.8	794 nM
7.4	7.6	1000 nM	Cc1c(C(=O)NCC(C)(C)c2noc(=O)[nH]2)cc(-c2cc(C(C)(C)O)cc(C3(C)CC3)c2)n1CC1CCCCC1 [17/310]	–	–	–
–	–	–	Cc1c(C(=O)NCC(C)(C)O)cc(-c2cc(C(C)(C)O)cc(C3(C)CC3)c2)n1CC1CCCCC1 [17/313]	6.0/6.8/6.8	6.0/6.8/6.8	1000 nM
7.2	7.1	1000 nM	Cc1c(C(=O)NCC2(O)CCOCC2)cc(-c2cc(C(C)(C)O)cc(C3(C)CC3)c2)n1CC1CCCCC1 [17/314]	–	–	–
6.5	6.5	1260 nM	Cc1c(C(=O)NCCS(N)(=O)=O)cc(-c2cc(C(C)(C)O)cc(C3(C)CC3)c2)n1CC1CCCCC1 [17/315]	–	–	–
6.3	6.3	2510 nM	Cc1c(C(=O)NCCN2CCOCC2)cc(-c2cc(C(C)(C)O)cc(C3(C)CC3)c2)n1CC1CCCCC1 [17/316]	–	–	–
6.5	6.5	2510 nM	Cc1c(C(=O)NCCS(C)(=O)=O)cc(-c2cc(C(C)(C)O)cc(C3(C)CC3)c2)n1CC1CCCCC1 [17/317]	–	–	–
7.7	7.6	2000 nM	Cc1c(C(=O)NCC2(C(N)=O)CCOCC2)cc(-c2cc(C(C)(C)O)cc(C3(C)CC3)c2)n1CC1CCCCC1 [17/318]	–	–	–
6.5	6.6	2000 nM	Cc1c(C(=O)NCC2(O)CCS(=O)(=O)CC2)cc(-c2cc(C(C)(C)O)cc(C3(C)CC3)c2)n1CC1CCCCC1 [17/319]	–	–	–

pIC50 (FF) [1, 3]	pIC50 (REN) [1, 4]	IC50 [2, 5]	Compound	pIC50 (FF) [1]	pIC50 (REN) [1]	IC50 [2]
–	–	–	Cc1c(C(=O)NCC2CCS(=O)(=O)CC2)cc(-c2cc(C(C)(C)O)cc(C3(C)CC3)c2)n1CC1CCCCC1 [17/320]	5.8/7.3/7.3	5.8/7.3/7.3	1580 nM
7.3	7.3	1000 nM	Cc1c(C(=O)NC2CCS(=O)(=O)CC2)cc(-c2cc(C(C)(C)O)cc(C3(C)CC3)c2)n1CC1CCCCC1 [17/321]	–	–	–
5.9	6.0	3980 nM	Cc1c(C(=O)NC2CCOCC2)cc(-c2cc(C(=O)NC(C)(C)C)cc(C(C)(C)O)c2)n1CC1CCCCC1 [17/322]	–	–	–
5.6	5.7	7940 nM	Cc1c(C(=O)NC2CCOCC2)cc(-c2cc(C(=O)NC(C)C)cc(C(C)(C)O)c2)n1CC1CCCCC1 [17/323]	–	–	–
–	–	–	COC(C)(C)c1cc(C(=O)NC(C)(C)C)cc(-c2cc(C(=O)NC3CCOCC3)c(C)n2CC2CCCCC2)c1 [17/324]	5.5/6.8/6.8	5.5/6.8/6.8	3160 nM
–	–	–	COC(C)(C)c1cc(-c2cc(C(=O)NC3CCOCC3)c(C)n2CC2CCCCC2)cc2c1OCCC21CC1 [17/325]	5.6/7.1/7.2	5.6/7.1/7.2	2510 nM
7.8	7.9	1000 nM	Cc1c(C(=O)N[C@H]2C[C@H](C(=O)O)C2)cc(-c2cc(C(C)(C)C)cc(C3(C)CC3)c2)n1CC1CCCCC1 [17/326]	–	–	–
6.8	6.9	794 nM	Cc1c(C(=O)NCC(C)(C)C(=O)O)cc(-c2ccc(S(=O)(=O)NC(C)(C)C)c(C(C)(C)O)c2)n1CC1CCCCC1 [17/327]	–	–	–
6.6	6.6	501 nM	Cc1c(C(=O)N[C@H]2C[C@H](C(=O)O)C2)cc(-c2ccc(S(=O)(=O)NC(C)(C)C)c(C(C)(C)O)c2)n1CC1CCCCC1 [17/328]	–	–	–
6.8	6.9	2510 nM	Cc1c(C(=O)NCC(C)(C)C(=O)O)cc(-c2cc(C(=O)NC(C)(C)C)cc(C(C)(C)C)c2)n1CC1CCCCC1 [17/329]	–	–	–
7.3	7.4	2510 nM	Cc1c(C(=O)N[C@H]2C[C@H](C(=O)O)C2)cc(-c2cc(C(=O)NC(C)(C)C)cc(C(C)(C)C)c2)n1CC1CCCCC1 [17/330]	–	–	–
6.6	6.5	1260 nM	Cc1c(C(=O)NCCc2noc(=O)[nH]2)cc(-c2ccc(S(=O)(=O)NC(C)(C)C)c(C(C)(C)C)c2)n1CC1CCCCC1 [17/331]	–	–	–
6.4	6.4	200 nM	Cc1c(C(=O)NCCc2noc(=O)[nH]2)cc(-c2ccc(S(=O)(=O)NC(C)(C)C)c(C(F)(F)F)c2)n1CC1CCCCC1 [17/332]	–	–	–
6.4	6.3	398 nM	Cc1c(C(=O)NCCc2noc(=O)[nH]2)cc(-c2ccc(S(=O)(=O)NC(C)(C)C)c(C(C)(C)O)c2)n1CC1CCCCC1 [17/333]	–	–	–
5.8	5.9	1260 nM	Cc1c(C(=O)NCCc2nn[nH]n2)cc(-c2ccc(S(=O)(=O)NC(C)(C)C)c(C(C)(C)C)c2)n1CC1CCCCC1 [17/334]	–	–	–
5.5	5.6	316 nM	Cc1c(C(=O)NCCc2nn[nH]n2)cc(-c2ccc(S(=O)(=O)NC(C)(C)C)c(C(F)(F)F)c2)n1CC1CCCCC1 [17/335]	–	–	–
< 4.7	< 4.7	1000 nM	Cc1c(C(=O)NCCc2nn[nH]n2)cc(-c2ccc(S(=O)(=O)NC(C)(C)C)c(C(C)(C)O)c2)n1CC1CCCCC1 [17/336]	–	–	–

Compound	pIC50 (FF) [1, 3]	pIC50 (REN) [1, 4]	IC50 [2, 5]	pIC50 (FF) [1]	pIC50 (REN) [1]	IC50 [2]
Cc1c(C(=O)NC2CCOCC2)cc(-c2cc(C(F)(F)F)cc(C3(C)CC3)c2)n1CC1CCCCC1 [17/297]	7.2	7.4	126 nM	–	–	–
Cc1c(C(=O)N[C@H]2C[C@H](C(=O)O)C2)cc(-c2cc(Cl)cc(C(=O)NC(C)(C)C)c2)n1CC1CCCCC1 [17/298]	5.9	6.0	2510 nM	–	–	–
Cc1c(C(=O)NC23CCC(C(=O)O)(CC2)CC3)cc(-c2cc(C(C)(C)O)cc(C3(C)CC3)c2)n1CC1CCCCC1 [17/302]	7.3	7.2	1580 nM	–	–	–
Cc1c(C(=O)NC2CCOCC2)cc(-c2cc(C(C)(C)O)cc(C(F)(F)F)c2)n1CC1CCCCC1 [17/306]	6.8	6.9	1580 nM	–	–	–
Cc1c(C(=O)N[C@H]2C[C@H](C(=O)O)C2)cc(-c2cc(C3(C)CC3)nc(C(C)(C)C)n2)n1CC1CCCCC1 [17/311]	7.0	7.2	794 nM	–	–	–
Cc1c(C(=O)N[C@H]2C[C@H](C(=O)O)C2)cc(-c2cc(C(C)(C)C)nc(C3(C)CC3)n2)n1CC1CCCCC1 [17/312]	7.2	7.3	316 nM	–	–	–
